The target in the assay is T1, serotonin (5-HT) reuptake (Rattus norvegicus, UniProt P31652).
T1 construct: synaptosomes are freshly isolated from areas of the rat brain; from tissue; host or cells: rat brain synaptosomes (P2 fraction)
T1 sequence (P31652 whole entry): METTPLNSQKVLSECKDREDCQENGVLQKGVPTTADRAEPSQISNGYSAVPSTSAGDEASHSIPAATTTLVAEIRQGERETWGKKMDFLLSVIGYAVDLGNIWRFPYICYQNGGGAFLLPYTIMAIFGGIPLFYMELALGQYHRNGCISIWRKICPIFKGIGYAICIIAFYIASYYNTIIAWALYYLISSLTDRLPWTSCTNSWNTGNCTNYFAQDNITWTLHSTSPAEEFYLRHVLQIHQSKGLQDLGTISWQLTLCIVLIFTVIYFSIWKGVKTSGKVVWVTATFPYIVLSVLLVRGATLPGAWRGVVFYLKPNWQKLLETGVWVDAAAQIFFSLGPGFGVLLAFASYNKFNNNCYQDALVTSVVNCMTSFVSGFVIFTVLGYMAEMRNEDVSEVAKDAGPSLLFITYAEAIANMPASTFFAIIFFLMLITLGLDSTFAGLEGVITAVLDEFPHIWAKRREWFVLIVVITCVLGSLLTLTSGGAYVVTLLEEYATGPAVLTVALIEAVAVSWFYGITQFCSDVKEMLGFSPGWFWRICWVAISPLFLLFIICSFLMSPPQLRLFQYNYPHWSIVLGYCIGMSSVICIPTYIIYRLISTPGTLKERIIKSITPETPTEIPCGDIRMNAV
Kind of assay: Inhibition of serotonin (5HT) reuptake in synaptosomes from rat brain. The format is biochemical. The following applies: test concentration of 10 μM. The procedure, abridged: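 Freshly isolated rat brain synaptosomes (P2 fraction) used for 5-HT reuptake. Test compound at 10 μM, activity given as % inhibition.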
`CN(C)C(c1ccc(F)cc1)C1CCC(CNC(=O)COCC2CCCN(S(=O)(=O)c3ccccc3)C2)CC1` (stereo not drawn) [Example 424]: the “5-HT (inhibition of reuptake of serotonin, % inhibition)” value stood at 96%. Consider `COc1ccc(S(=O)(=O)N(C)CCOCC(=O)NCC2CCC(C(c3ccc(Cl)cc3)N(C)C)CC2)cc1OC` (stereo not drawn) [Example 379], for which the “5-HT (inhibition of reuptake of serotonin, % inhibition)” value was determined as 81%. Consider `CN(C)C(c1ccc(Cl)cc1)C1CCC(CCNC(=O)COC2CCN(S(=O)(=O)c3cccc(C(F)(F)F)c3)C2)CC1` (stereo not drawn) [Example 431], for which the “5-HT (inhibition of reuptake of serotonin, % inhibition)” value is recorded as 93%. With `COc1cc(C)c(S(=O)(=O)N(C)CCOCC(=O)NCCC2CCC(C(c3ccc(F)cc3)N(C)C)CC2)c(C)c1` (stereo not drawn) [Example 392] the figure was 89%. Regarding `CN(C)C(c1ccc(Cl)cc1)C1CCC(CCNC(=O)COC2CCCN(S(=O)(=O)c3ccccc3)C2)CC1` (stereo not drawn) [Example 395], the “5-HT (inhibition of reuptake of serotonin, % inhibition)” value was 96%. As to `Cc1cc(C)c(S(=O)(=O)N2CCC(OCC(=O)NCC3CCC(C(c4ccc(F)cc4)N(C)C)CC3)C2)c(C)c1` (stereo not drawn) [Example 432], the “5-HT (inhibition of reuptake of serotonin, % inhibition)” value was 82%. With `CN(C)C(c1ccc(Cl)cc1)C1CCC(CCNC(=O)COC2CCN(S(=O)(=O)c3ccccc3)CC2)CC1` (stereo not drawn) [Example 443] the figure was 96%; with `COc1ccc(S(=O)(=O)N2Cc3ccccc3CC2COCC(=O)NCCC2CCC(C(c3ccc(Cl)cc3)N(C)C)CC2)cc1` (stereo not drawn) [Example 374], 90%; with `CN(C)C(c1cccc(F)c1)C1CCC(CCNC(=O)COC2CCN(S(=O)(=O)c3ccccc3)C2)CC1` (stereo not drawn) [Example 376], 88%. The value for `CN(C)C(c1ccc(F)cc1)C1CCC(NC(=O)COCCN(C)S(=O)(=O)c2ccc(Cl)cc2)CC1` (stereo not drawn) [Example 406] was 93%; that for `COc1cc(C)c(S(=O)(=O)N2CCN(CCOCC(=O)NCC3CCC(C(c4ccc(F)cc4)N(C)C)CC3)CC2)c(C)c1C` (stereo not drawn) [Example 366] was 96%. `CN(C)C(c1ccc(F)cc1)C1CCC(NC(=O)COC2CCN(S(=O)(=O)c3ccc(F)cc3)C2)CC1` (stereo not drawn) [Example 381]: the “5-HT (inhibition of reuptake of serotonin, % inhibition)” value worked out at 79%. On to `CN(C)C(c1ccc(F)cc1)C1CCC(NC(=O)COCCN(C)S(=O)(=O)c2c(Cl)cc(Cl)cc2Cl)CC1` (stereo not drawn) [Example 382], for which the “5-HT (inhibition of reuptake of serotonin, % inhibition)” value came out at 96%. For `CN(C)C(c1ccc(Cl)cc1)C1CCC(CNC(=O)COC2CCN(S(=O)(=O)c3ccc(F)cc3)C2)CC1` (stereo not drawn) [Example 394], the “5-HT (inhibition of reuptake of serotonin, % inhibition)” value stood at 93%. In the case of `CN(C)C(c1ccc(F)cc1)C1CCC(NC(=O)COC2CCCN(S(=O)(=O)c3ccccc3)C2)CC1` (stereo not drawn) [Example 423], the “5-HT (inhibition of reuptake of serotonin, % inhibition)” value is listed as 95%. In the case of `COc1ccc(S(=O)(=O)N2Cc3ccccc3CC2COCC(=O)NCCC2CCC(C(c3ccc(F)cc3)N(C)C)CC2)cc1` (stereo not drawn) [Example 389], the “5-HT (inhibition of reuptake of serotonin, % inhibition)” value is recorded as 93%. With `COc1cc(C)c(S(=O)(=O)N2CCC(OCC(=O)NCC3CCC(C(c4ccc(Cl)cc4)N(C)C)CC3)C2)c(C)c1C` (stereo not drawn) [Example 428] the figure was 88%; with `COc1ccc(S(=O)(=O)N2CCCC2COCC(=O)NCCC2CCC(C(c3ccc(F)cc3)N(C)C)CC2)cc1` (stereo not drawn) [Example 409], 97%.

Consider `COc1cc(C)c(S(=O)(=O)N2CCC(OCC(=O)NCC3CCC(C(c4ccc(F)cc4)N(C)C)CC3)C2)c(C)c1C` (stereo not drawn) [Example 427], for which the “5-HT (inhibition of reuptake of serotonin, % inhibition)” value is reported as 94%. With `COc1cc(C)c(S(=O)(=O)N(CCOCC(=O)NCC2CCC(C(c3cccc(F)c3)N(C)C)CC2)Cc2ccccc2)c(C)c1` (stereo not drawn) [Example 388] the figure was 91%; with `CN(C)C(c1ccc(F)cc1)C1CCC(CCNC(=O)COCCN(C)S(=O)(=O)c2ccc(Cl)cc2)CC1` (stereo not drawn) [Example 377], 88%.

In the case of `Cc1ccc(S(=O)(=O)N2CCC(OCC(=O)NCC3CCC(C(c4ccc(F)cc4)N(C)C)CC3)C2)cc1` (stereo not drawn) [Example 447], the “5-HT (inhibition of reuptake of serotonin, % inhibition)” value is recorded as 95%. With `CN(C)C(c1ccc(F)cc1)C1CCC(CNC(=O)COCCN(C)S(=O)(=O)c2c(Cl)cc(Cl)cc2Cl)CC1` (stereo not drawn) [Example 404] the figure was 96%; with `CN(C)C(c1ccc(Cl)cc1)C1CCC(CCNC(=O)COCCN(Cc2ccccc2)S(=O)(=O)c2ccccc2)CC1` (stereo not drawn) [Example 426], 95%; with `CN(C)C(c1ccc(F)cc1)C1CCC(CNC(=O)COCCN(C)S(=O)(=O)c2cccc(C(F)(F)F)c2)CC1` (stereo not drawn) [Example 390], 90%. With `CN(C)C(c1ccc(Cl)cc1)C1CCC(CCNC(=O)COC2CCN(S(=O)(=O)c3ccc(F)cc3)C2)CC1` (stereo not drawn) [Example 440] the figure was 95%.

Regarding `COc1cc(C)c(S(=O)(=O)N2CCC(OCC(=O)NCC3CCC(C(c4ccc(Cl)cc4)N(C)C)CC3)C2)c(C)c1` (stereo not drawn) [Example 403], the “5-HT (inhibition of reuptake of serotonin, % inhibition)” value worked out at 93%.

The values above are taken from patent publication US8106055B2, “Substituted amide compounds” (Gruenenthal GmbH, priority 2007, dated 2012).
